Measured values reported in paper PMC8478281, “Targeting the FtsZ Allosteric Binding Site with a Novel Fluorescence Polarization Screen, Cytological and Structural Approaches for Antibacterial Discovery” (Journal of Medicinal Chemistry, 2021).
Values after ≈ are worked out from the molar mass of the structure shown. Values joined by “and” are separate entries in the source; they are usually repeats but may differ in a detail not shown here. Equal values may be shown once. Read-outs that look alike come from different tables or passages of the source.

What was measured:
[1] = target: T1, stabilized FtsZ-GMPCPP polymers (BsFtsZ) (Bacillus subtilis, UniProt P17865); experiment: Competition assay: displacement of probe (S)-2 from stabilized FtsZ-GMPCPP polymers; format: binding; conditions: for Kd: (S)-2 3 μM, 8 μM binding sites
T1 construct: made in house
T1 sequence (P17865 whole entry): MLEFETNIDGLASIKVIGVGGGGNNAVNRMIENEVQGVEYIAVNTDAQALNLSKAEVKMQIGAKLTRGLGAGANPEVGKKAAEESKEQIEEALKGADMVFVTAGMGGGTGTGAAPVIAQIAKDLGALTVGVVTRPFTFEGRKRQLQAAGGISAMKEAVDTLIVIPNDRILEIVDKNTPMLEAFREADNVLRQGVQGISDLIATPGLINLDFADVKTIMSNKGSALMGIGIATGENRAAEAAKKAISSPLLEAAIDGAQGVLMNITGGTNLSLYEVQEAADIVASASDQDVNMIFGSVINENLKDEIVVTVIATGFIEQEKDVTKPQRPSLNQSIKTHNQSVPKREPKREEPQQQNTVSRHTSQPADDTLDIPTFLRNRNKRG
Experimental: (§1) FtsZ (10–15 μM) was assembled in HEPES buffer, 10 mM MgCl2, 50 μM GMPCPP at 25 °C for 10 min, and then 0.15% (v/v) glutaraldehyde[36] (distilled grade for microscopy, TAAB Laboratories, U.K.) was added to the solution that was incubated at 25 °C for 10 min more. (This was the minimal glutaraldehyde concentration determined to stabilize FtsZ polymers specifically binding probe 1.) The remains of the cross-linking agent were quenched by adding 60 mM NaBH4, the sample was incubated on ice for 10 min and degassed.[36] Cross-linked polymers were centrifuged for 10 min at 8200g (5000 rpm) and 4 °C in 15 mL Falcon tubes employing a Rotina 380R (Hettich) centrifuge, the supernatant was removed and the pellet was resuspended in the same volume of HEPES buffer, 10 mM MgCl2, containing 5 μM GMPCPP. Fixed FtsZ polymers were active in binding assays after more than 2 days at 4 °C; they could also be frozen in liquid nitrogen with a small loss of binding capacity. […] Cross-linked polymers of SaFtsZ were similarly prepared.
(§2) Competition assays were performed by measuring, through the decrease in fluorescence anisotropy, the displacement of the fluorescent probes from stabilized FtsZ polymers. Increasing concentrations of competing ligands were added to the mixtures of cross-linked FtsZ polymers (10–15 μM) with probe 1 (3 μM), 7–8 μM FtsZ polymers with probe (S)-2 (3 μM), or 2–3 μM FtsZ polymers with (R)-5 (3 μM). HEPES buffer with 10 mM MgCl2 and 0.1 mM GMPCPP was employed, with a final volume of 0.5 mL, and the anisotropy measured at 25 °C. Under these conditions, the initial fraction of the probe bound was between 0.4 and 0.5. The fraction of the probe bound (Vb) was calculated [drawing 1] where rfree and rmax are the anisotropy values of the free and bound probes, respectively, and R is the ratio between the fluorescence intensities of the bound and free probe (Table S1). The binding data were plotted against the competing ligand concentration and fitted by competition equilibrium of the ligand and the probe for the same binding site. The resulting system of equations[50] was numerically solved using the Equigra v. 5.0 program,[33] which provided the best-fitted value of the competitor binding constant.

[2] = target: T2, stabilized FtsZ-GMPCPP polymers (Bacillus subtilis, UniProt P17865); experiment: Fluorescence anisotropy screen with probe (S)-2 at two compound concentrations; format: binding; conditions: probe (S)-2 3 μM, compound 20 and 200 μM
T2 construct: made in house
T2 sequence (P17865 whole entry): as above
Experimental: Once the fluorescence method for ligand binding into the interdomain cleft was set up, we evaluated its potential to screen for FtsZ allosteric inhibitors. Complementary to this screen, cytological profiling tests of the identified binders allow ascertaining their ability to target FtsZ in bacterial cells. Fluorescence anisotropy measurements of probe (S)-2 at two concentrations of each tested compound (20 and 200 μM) were acquired; the solubility range of positively testing compounds was determined spectrophotometrically. […] The promiscuous inhibitors resveratrol,[40] plumbagin,[41] and tiplaxtinin[42] […] It should be noticed that aggregating compounds may sequester the protein or the probe or may scatter highly polarized light, potentially interfering with the fluorescence anisotropy measurements. Colored and fluorescent compounds can also interfere. Compounds initially testing positive in the anisotropy screen should thus be checked for any unexpected changes of the total fluorescence intensity in the same samples, as well as for any artefactual effects on replicates omitting FtsZ.
(§3) Figure 4 Fluorescence anisotropy screen for FtsZ allosteric inhibitors combined with cell-based methods. (A) Screen for FtsZ inhibitors employing the fluorescence anisotropy of probe (S)-2 (3 μM) and stabilized FtsZ-GMPCPP polymers (8 μM binding sites). The anisotropy values of the partially bound probe (void black circles), the free probe (void gray circles), and the values with two concentrations of each compound, 20 μM (gray circles) and 200 μM (black circles) are shown. Control values with the corresponding concentrations of dimethyl sulfoxide (DMSO) vehicle (2% void and gray circles; 4%, black circle) are also shown. (B) Chemical structures of synthetic ligands 6–26. (C) Effects of low-affinity inhibitors 6, 7, and 9 on B. subtilis 168 cell division. Raw data plots (n ≥ 30) are shown with the mean values marked (statistics in Table S2). The cells were incubated for 3 h with each compound, and cell lengths were measured. (D) Representative phase-contrast images of cells after 3 h with 7 or 9 (0.75 mM each). (E) Cellular localization of FtsZ-GFP in B. subtilis SU570 following growth for 1.5 h in the absence (inset) and presence of 7 (0.2 mM). Bars, 10 μm.
as §2

[3] = Solubility in HEPES buffer with 2% DMSO, spectrophotometric; format: physicochemical; conditions: HEPES buffer containing 2% DMSO, 25 °C, aqueous buffer, kinetic from dmso stock; HEPES buffer pH 6.8 containing 2% DMSO
Experimental: 3.2. Solubility of Compounds. Stock solutions of compounds were prepared in
DMSO (spectroscopic grade, Merck) a nd stored at -20 °C. Compound solubility in 50
mM HEPES-KOH, 50 mM KCl, 1 mM EDTA, pH 6.8 (HEPES buffer) containing 2%
DMSO was determined spectrophotometrically, monitoring the linear correlation
between the absorbance and the compound concentration and the absence of light
scattering. The solutions were optionally centrifuged at 100000 rpm for 20 min at 25 °C
in a TLA100 rotor with a Beckman Optima Max -XP ultracentrifuge.

[4] = system: B. subtilis 168; experiment: Cell length of B. subtilis 168 incubated with FtsZ inhibitors; format: cell-based, Bacillus subtilis; design: unit not given here; conditions: B. subtilis 168, 3 h, mean and standard error, n ≥ 30
Experimental: as §3, with “The anisotropy values of the partially bound probe (void black circles), the free probe (void gray circles), and the values with two concentrations of each compound, 20 μM (gray circles) and 200 μM (black circles) are shown.” left out, “(B) Chemical structures of synthetic ligands 6–26. (C) Effects of low-affinity inhibitors 6, 7, and 9 on B. subtilis 168 cell division.” left out
B. subtilis 168 and Staphylococcus spp. were grown in cation adjusted Mueller–Hinton broth (CAMHB; Becton, Dickinson and Company) at 37 °C. B. subtilis SU570 were grown in the same medium at 30 °C. In all cases, the cells were grown to an absorbance of 0.1–0.2 at 600 nm and then incubated either with the compounds or DMSO vehicle. Microscopy assays and cell measurement were performed as previously described.[31] MIC values were determined by a broth macrodilution method.[51] […] To construct a S. aureus strain expressing FtsZ-mCherry, the plasmid pCN-ftsZmch[9] was electroporated into RN4220 and 0.1 μM cadmium chloride (Sigma-Aldrich) was used to induce the expression of the construct under the control of the Pcad promoter. […]

[5] = system: B. subtilis; experiment: Minimal division inhibitory concentration and cell division phenotype, B. subtilis; format: cell-based, Bacillus subtilis; conditions: for minimal effective concentration: Bacillus subtilis, read-out: MDC B. subtilis
Experimental: (§4) B. subtilis 168 and Staphylococcus spp. were grown in cation adjusted Mueller–Hinton broth (CAMHB; Becton, Dickinson and Company) at 37 °C. B. subtilis SU570 were grown in the same medium at 30 °C. In all cases, the cells were grown to an absorbance of 0.1–0.2 at 600 nm and then incubated either with the compounds or DMSO vehicle. Microscopy assays and cell measurement were performed as previously described.[31] MIC values were determined by a broth macrodilution method.[51] MBC values were determined as the lowest concentration of inhibitor at which there was a 99.9% reduction in colony-forming units/mL compared to the inoculum. To construct a S. aureus strain expressing FtsZ-mCherry, the plasmid pCN-ftsZmch[9] was electroporated into RN4220 and 0.1 μM cadmium chloride (Sigma-Aldrich) was used to induce the expression of the construct under the control of the Pcad promoter.

[6] = target: T3, stabilized polymers of FtsZ from B. subtilis (Bacillus subtilis, UniProt P17865); experiment: Competition assay: displacement of probe (R)-5 from stabilized BsFtsZ-GMPCPP polymers; format: binding; conditions: stabilized polymers of FtsZ from B. subtilis, probe (R)-5, mean ± SEM
T3 construct: made in house
T3 sequence (P17865 whole entry): as above
Experimental: as §1, §2

[7] = system: S. aureus Mu50; experiment: Minimal division inhibitory concentration, S. aureus Mu50; format: cell-based; conditions: Staphylococcus aureus, MU50, read-out: MDC S. aureus Mu50
Experimental: as §4

[8] = system: B. subtilis; experiment: Minimal growth inhibitory concentration (broth macrodilution), B. subtilis; format: cell-based, Bacillus subtilis; conditions: Bacillus subtilis, read-out: MIC B. subtilis
Experimental: as §4

[9] = system: S. aureus Mu50; experiment: Minimal growth inhibitory concentration (broth macrodilution), S. aureus Mu50; format: cell-based, Staphylococcus aureus; conditions: Staphylococcus aureus, MU50, read-out: MIC S. aureus Mu50
Experimental: as §4

Q: For `OCc1nc2cc(Cl)cnc2s1` [CTPM, 6-(chloro[1,3]thiazolo[5,4-b]pyridin-2-yl)methanol, reference compound], which Kd [1] is on record?
A: 1000 ± 100 µM

Q: Which results are given for `NC(=O)c1cccc(NCc2cccc(Cl)c2)c1` [Compound 6]?
A: Kd [1]: 233 µM and ~200 µM; result of the anisotropy screen, in words [2]: weak binders; solubility [3]: ≥ 100 µM; length ([4]; 0.5 mM): 5.9 ± 0.3; length ([4]; 0.75 mM): 8.0 ± 0.2

Q: Which results are given for `CN(Cc1cccc(Cl)c1)c1cccc(C(N)=O)c1` [Compound 7]?
A: Kd [1]: 159 µM and ~200 µM; result of the anisotropy screen, in words [2]: weak binders; fold lower concentration inhibiting B. subtilis division than 3-methoxybenzamide ([5]; 3-methoxybenzamide value from ref 44): ~20 fold; solubility [3]: ≥ 100 µM; length ([4]; 0.5 mM): 8.5 ± 0.3; length ([4]; 0.75 mM): 24.7 ±0.8

Q: Which results are given for `NC(=O)c1ccc(NCc2cccc(Cl)c2)cc1` [Compound 9]?
A: Kd [1]: 196 µM and ~200 µM; result of the anisotropy screen, in words [2]: weak binders; solubility [3]: ≥ 100 µM; length ([4]; 0.5 mM): 6.1 ± 0.3; length ([4]; 0.75 mM): 11.6 ±0.4

Q: With `CN(Cc1cccc(Cl)c1)c1ccc(C(N)=O)cc1` [Compound 10] as the molecule, how does the Kd [1] read?
A: 250 µM and ~200 µM

Q: What about the “result of the anisotropy screen, in words” value (“result” for short) [2] of the same molecule?
A: weak binders

Q: And the solubility [3]?
A: ≥ 100 µM

Q: For `NC(=O)c1c(F)ccc(OCCc2cccc(C(F)(F)F)c2)c1F` [Compound 22], which Kd ([6]; read-out: KD) is on record?
A: 5.9 ± 0.4 µM

Q: What about the minimal effective concentration [5] of the same molecule?
A: 15 µM

Q: And the minimal effective concentration [7]?
A: 100 µM

Q: And the MIC [8]?
A: 50 µM (≈ 17.3 µg/mL)

Q: And the MIC [9]?
A: 200 µM (≈ 69.1 µg/mL)

Q: And the solubility [3]?
A: > 100 µM

Q: Which results are given for `NC(=O)c1c(F)ccc(OCCCc2cccc(C(F)(F)F)c2)c1F` [Compound 23]?
A: Kd ([6]; read-out: KD): 1.5 ± 0.1 µM; minimal effective concentration [5]: 5 µM; minimal effective concentration [7]: 25 µM; MIC [8]: 10 µM (≈ 3.59 µg/mL); MIC [9]: 50 µM (≈ 18 µg/mL); solubility [3]: 50 µM (≈ 18 µg/mL)

Q: With `CN(C)CCC(Oc1ccc(F)c(C(N)=O)c1F)c1cccc(C(F)(F)F)c1` (stereo not shown) [Compound 24] as the molecule, how does the Kd ([6]; KD) read?
A: 145 ± 10 µM

Q: What about the minimal effective concentration [5] of the same molecule?
A: > 50 µM

Q: And the minimal effective concentration [7]?
A: > 100 µM

Q: And the MIC [8]?
A: > 100 µM

Q: And the MIC [9]?
A: > 100 µM

Q: And the solubility [3]?
A: > 1000 µM

Q: With `COc1ccc(F)c(C(N)=O)c1F` [DFMBA, 2,6-difluoro-3-methoxybenzamide, reference compound] as the molecule, how does the Kd [1] read?
A: 670 ± 50 µM

Q: Which “displacement of (S)-2 from its binding site, in words” value ([1]; negative control) does the source give for `Nc1nc2c(ncn2[C@@H]2O[C@H](COP(=O)(O)OP(=O)(O)O)[C@@H](O)[C@H]2O)c(=O)[nH]1` [GDP, guanosine diphosphate, reference compound] here?
A: does not displace

Q: Which “result” value [2] does the source give for `O=C(O)CCN(Cc1ccccc1)Cc1cccc(Sc2ccccc2)c1` [PC170942] here?
A: no evidence of binding

Q: Which “result” value [2] does the source give for `O=C(Oc1cc(OC(=O)c2cc(O)cc(O)c2)c2ccccc2c1)c1ccc(O)c(O)c1` [UCM44] here?
A: marginal inhibitory effect

Q: Which results are given for `CC1=CC(=O)c2c(O)cccc2C1=O` [plumbagin, reference compound]?
A: result of the anisotropy screen, in words [2]: weakly modified anisotropy and total fluorescence intensity; inhibition of B. subtilis cell division, in words [5]: none of them impaired B. subtilis cell division

Q: Which “result” value [2] does the source give for `Oc1ccc(/C=C/c2cc(O)cc(O)c2)cc1` [resveratrol, reference compound] here?
A: weakly modified anisotropy and total fluorescence intensity

Q: What about the “inhibition of B. subtilis cell division, in words” value [5] of the same molecule?
A: none of them impaired B. subtilis cell division

Q: For `O=C(O)C(=O)c1cn(Cc2ccccc2)c2ccc(-c3ccc(OC(F)(F)F)cc3)cc12` [tiplaxtinin, reference compound], which “result” value [2] is on record?
A: weakly modified anisotropy and total fluorescence intensity

Q: What about the “inhibition of B. subtilis cell division, in words” value [5] of the same molecule?
A: none of them impaired B. subtilis cell division

Q: Which “result” value [2] does the source give for `CCN(CC)CCNc1nc(/C=C/c2ccc(Cl)cc2)nc2cc3ccccc3cc12` [zantrin Z3] here?
A: no evidence of binding
